Data from patent US20240016787A1, “METHODS FOR TREATMENT OF CANCER AND PHAGOCYTOSIS-DEFICIENCY RELATED DISEASES” (RDiscovery, LLC, priority 2020, published 2024).

Tests used:
[1] = test system: Capan-1 human pancreatic ductal adenocarcinoma cells; assay: Subcutaneous Capan-1 pancreatic cancer xenograft model in female BALB/c nude mice; assay type: in vivo
Procedure: A study of the in vivo therapeutic efficacy of cilnidipine as a single agent or in combination with gemcitabine in the treatment of the subcutaneous Capan-1 pancreatic cancer xenograft model in female BALB/c nude mice was performed.
Female BALB/c nude mice 7-9 weeks of age were used in the study.
Capan-1 human pancreatic ductal adenocarcinoma cells were cultured in IMEM medium with 20% FBS at 37° C. and 5% CO2 in air atmosphere.
Each mouse was inoculated subcutaneously in the right upper flank region with tumor cells (5×10^6 cells) in 0.1 ml of PBS with Matrigel (1:1) for tumor development.
Randomization was started when the mean tumor size reached approximately 254.27 mm^3. A total of 48 mice were enrolled in the study and randomly allocated to the six study groups, with eight mice per group. Randomization was performed based on “Matched distribution” method (Study Director™ software, version 3.1.399.19). The date of randomization was denoted as day 0.
After tumor inoculation, the animals were checked daily for morbidity and mortality. During routine monitoring, the animals were checked for any effects of tumor growth and treatments on behavior such as mobility, food and water consumption, body weight gain/loss (body weights were measured twice per week after randomization), eye/hair matting and any other abnormalities. Mortality and observed clinical signs were recorded for individual animals in detail.
Tumor volumes were measured twice per week after randomization in two dimensions using a caliper, and the volume was expressed in mm^3 using the formula: V=(L×W×W)/2, where V is tumor volume, L is tumor length (the longest tumor dimension) and W is tumor width (the longest tumor dimension perpendicular to L). Dosing as well as tumor and body weight measurements were conducted in a Laminar Flow Cabinet. Body weights and tumor volumes were measured by using Study Director™ software (version 3.1.399.19).
The vehicle used for cilnidipine was 5% DMSO and corn oil. The vehicle used for gemcitabine was saline. Dosing volume was adjusted for body weight (dosing volume=5/10 μL/g). Treatments were initiated on day 0 following randomization.
The study was planned so that (1) mice showing a body weight loss (BWL)>20% after one measurement would be sacrificed, (2) mice showing BWL>15% after one measurement would be given a dosing holiday in a separate cage alone with daily monitoring for 72 hours, while other mice in the same group would receive dosing as scheduled, with treatment of the isolated mouse resuming when the BWL had recovered to BWL<10%, and (3) mice showing a BWL>10% would receive supplemental gel. BWL was calculated based on the BW on the first day of treatment.
The study endpoint was tumor growth inhibition (TGI). […] TGI is expressed as: TGI (%)=100×(1−T/C). […]

mdx mouse = mdx mouse model of Duchenne muscular dystrophy (DMD); assay type: in vivo; settings: mdx mice, vs MDX-Vehicle
Procedure: The effect of cilnidipine and the cilnidipine derivative NS4-043 in the mdx mouse model of Duchenne muscular dystrophy (DMD) model was evaluated. The mdx mouse has a point mutation in its DMD gene, changing the amino acid coding for a glutamine to a stop codon, which causes the muscle cells to produce a small, nonfunctional dystrophin protein.
Animals were dosed once daily with vehicle, idebenone or cilnidipine on study days: 0 to 20.
Mice were evaluated by a rotarod test on study days 19 and 20. Body weight was measured throughout the study period. […] (CK) and […] (LDH), two biomarkers of DMD, were measured on day 21.

[2] = test system: MC38 cells, a murine colon adenocarcinoma cell line; assay: In vivo anti-tumor effect in MC38 tumor-bearing C57BL/6 mice; design: species or system mouse; settings: i.t. on days 10 and 14 after tumor inoculation; vs control mice
Procedure: The in vivo anti-tumor effect of cilnidipine is assessed in MC38 tumor-bearing C57BL/6 mice. Five or seven week old C57BL/6 mice are maintained under specific pathogen-free (SPF) conditions. Mice are injected subcutaneously with 5×10^5 MC38 cells, a murine colon adenocarcinoma cell line, and treated i.t. with cilnidipine on days 10 and 14 after tumor inoculation. Tumor volume is measured at the various time points.

[3] = test system: J774.1 mouse macrophage cell line; assay: In vitro phagocytosis of PE-labeled polystyrene beads by macrophages (flow cytometry); assay type: cell-based; settings: 0.3 μM, 1 μM, or 3 μM for 20 hours; beads 2.5 hours; vs DMSO vehicle
Procedure: The effect of cilnidipine on phagocytosis by macrophages was evaluated in vitro using the J774.1 mouse macrophage cell line. Cells were seeded at 2×10^5 cells/well/200 μL of a 48 well plate and cultured for 24 hours in DMEM medium containing 10% FBS and antibiotics at 37° C. under 5% CO2. Cells were washed once and then incubated with cilnidipine at concentrations 0.3 μM, 1 μM, or 3 μM, or DMSO (vehicle) for 20 hours.
The level of phagocytosis was evaluated by adding 10 μL of DMEM medium containing 4×10^6 PE-labeled polystyrene beads (Fluoresbrite® Polychromatic Red Microspheres 2.0 μm) to cells and culturing them for 2.5 hours. Cells were then washed 3 times with PBS and collected. The level of phagocytic activity was assessed by flow cytometry, measuring the amount of fluorescent signal derived from the PE-labelled beads that were taken up by the cells, with cells treated with 0.1% DMSO used as negative control. The proportions of cells engulfing 1 or more, 2 or more, 3 or more, and 4 or more particles were measured.

[4] = test system: pancreatic and melanoma cancer cell lines; assay: Anti-proliferative effects on cancer cell lines in vitro; assay type: cell-based; settings: AsPC-1, Capan-1, KP4, MIA PaCa-2, BxPC-3, A375, SK-MEL-28, MeWo
Procedure: The effect of cilnidipine on cell proliferation of eight cancer cell lines is evaluated. Five pancreatic cancer cell lines are included, four containing KRAS mutations (AsPC-1 (G12D), Capan-1 (G12V), KP4 (M188V, G12D) and MIA PaCa-2 (G12C)), and one pancreatic cancer cell line with wild type KRAS, BxPC-3, in addition to three melanoma cell lines, two of which contain B-Raf mutations: A375 (V600E) and SK-MEL-28 (V600E), and one melanoma cell line with wild type B-Raf, MeWo.

[5] = 10 mg/kg once daily days 0 to 20, measured day 21
[6] = 200 mg/kg once daily days 0 to 20, measured day 21

## COCCOC(=O)C1=C(C)NC(C)=C(C(=O)OC/C=C/c2ccccc2)C1c1cccc([N+](=O)[O-])c1 (stereo not drawn) [Cilnidipine]
[1]; Group 4: cilnidipine 10 mg/kg p.o. QD × 21 days
  Tumor Growth Inhibition (TGI) on Day 20, TGI vs G01: 9.014%
[1]; Group 4: cilnidipine 10 mg/kg p.o. QD × 21 days, listed as cilnidipine
  Tumor Growth Inhibition (TGI) on Day 20, TGI vs G01: 9.01%
Mdx mouse; [5]
  plasma CK: significantly suppressed plasma CK
  plasma LDH: significantly decreased plasma LDH
[2]
  tumor growth: reduces tumor growth as compared to control mice
[3]
  phagocytic activity of macrophages: enhanced phagocytic activity of macrophages in a dose dependent manner
[4]
  anti-proliferative effect on cancer cell lines: has an anti-proliferative effect on the cell lines

## Nc1ccn([C@@H]2O[C@H](CO)[C@@H](O)C2(F)F)c(=O)n1 [Gemcitabine]
[1]; Group 2: gemcitabine 30 mg/kg i.p. Q3D × 4
  Tumor Growth Inhibition (TGI) on Day 20, TGI vs G01: 15.273%
[1]; Group 3: gemcitabine 100 mg/kg i.p. Q3D × 4
  Tumor Growth Inhibition (TGI) on Day 20, TGI vs G01: 30.717%

## COC1=C(OC)C(=O)C(CCCCCCCCCCO)=C(C)C1=O [Idebenone]
Mdx mouse; [6]
  plasma CK: but not idebenone, significantly suppressed plasma CK
  plasma LDH: significantly decreased plasma LDH

## COCCOC(=O)C1=C(C)NC(C)=C(C(=O)OC/C=C/c2ccncc2)C1c1ccccc1[N+](=O)[O-] (stereo not drawn) [NS4-043]
Mdx mouse; [5]
  plasma LDH: did not significantly decrease plasma LDH
